One assay concerns the target DGKα (Homo sapiens (Human), UniProt P23743). Nature of the assay: Biochemical DGK IC50 assay (ADP-Glo, lipid micelle substrate), DGKα. Further: full length DGKα 7.5 nM. The following applies: full length DGKα […], ATP 140 μM, DAG 80 μM. The procedure, abridged:
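Luminescent ADP-Glo detection followed a 1 h room-temperature reaction of full-length DGKα on DAG/PS micelles, in HEPES buffer with 10 mM MgCl2, 0.01 mM CaCl2, 0.1 mM Na3VO4, BSA and Tween-20. IC50 derived from inhibition across increasing compound concentrations.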
(In general: ADP-Glo first removes unused ATP, then detects ADP through luciferase.)

The target in another assay is DGKζ (Homo sapiens (Human), UniProt Q13574). Nature of the assay: Biochemical DGK IC50 assay (ADP-Glo, lipid micelle substrate), DGKζ. The note with it: full length DGKζ 0.5 nM, ATP 140 μM, DAG 80 μM. In short, it runs like this:
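ADP-Glo luminescence measured ADP made in a 1 h room-temperature reaction. The enzyme was Sf9-expressed, purified full-length human DGKζ, and the substrate was DAG/PS micelles. Assay buffer held 50 mM HEPES, 10 mM MgCl2, 0.01 mM CaCl2, 0.1 mM Na3VO4 and 0.01% BSA. IC50 was derived from activity inhibition over a compound concentration series.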

The structures appear in SMILES notation.

A word on the IC50: it is the point on the concentration scale where inhibition reaches its midpoint. A low value points to greater potency.

DGKζ, sequence (Q13574 other isoform, or with tags, fused parts or gaps): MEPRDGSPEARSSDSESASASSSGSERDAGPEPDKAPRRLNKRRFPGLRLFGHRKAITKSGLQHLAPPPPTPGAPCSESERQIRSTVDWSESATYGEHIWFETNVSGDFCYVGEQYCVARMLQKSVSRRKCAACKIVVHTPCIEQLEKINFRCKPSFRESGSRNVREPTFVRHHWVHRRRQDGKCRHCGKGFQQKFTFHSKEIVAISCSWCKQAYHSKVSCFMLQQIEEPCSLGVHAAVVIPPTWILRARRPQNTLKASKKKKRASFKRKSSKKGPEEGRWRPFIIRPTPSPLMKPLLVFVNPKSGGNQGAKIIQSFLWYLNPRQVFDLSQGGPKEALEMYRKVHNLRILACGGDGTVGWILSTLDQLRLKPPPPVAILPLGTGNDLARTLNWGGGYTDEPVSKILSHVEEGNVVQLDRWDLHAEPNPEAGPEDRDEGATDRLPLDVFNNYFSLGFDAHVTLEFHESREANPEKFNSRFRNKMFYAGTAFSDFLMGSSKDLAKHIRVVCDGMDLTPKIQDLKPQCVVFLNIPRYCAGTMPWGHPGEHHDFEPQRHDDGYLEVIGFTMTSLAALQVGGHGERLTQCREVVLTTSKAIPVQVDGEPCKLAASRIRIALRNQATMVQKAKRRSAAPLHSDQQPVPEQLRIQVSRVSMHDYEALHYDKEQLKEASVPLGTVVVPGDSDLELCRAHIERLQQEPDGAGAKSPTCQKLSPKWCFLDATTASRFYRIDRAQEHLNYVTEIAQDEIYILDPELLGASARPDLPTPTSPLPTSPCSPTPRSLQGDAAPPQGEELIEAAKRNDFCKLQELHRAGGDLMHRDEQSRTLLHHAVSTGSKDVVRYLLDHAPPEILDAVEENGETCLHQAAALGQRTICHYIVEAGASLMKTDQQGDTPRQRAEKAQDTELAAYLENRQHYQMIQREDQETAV
DGKα, sequence (P23743 whole entry): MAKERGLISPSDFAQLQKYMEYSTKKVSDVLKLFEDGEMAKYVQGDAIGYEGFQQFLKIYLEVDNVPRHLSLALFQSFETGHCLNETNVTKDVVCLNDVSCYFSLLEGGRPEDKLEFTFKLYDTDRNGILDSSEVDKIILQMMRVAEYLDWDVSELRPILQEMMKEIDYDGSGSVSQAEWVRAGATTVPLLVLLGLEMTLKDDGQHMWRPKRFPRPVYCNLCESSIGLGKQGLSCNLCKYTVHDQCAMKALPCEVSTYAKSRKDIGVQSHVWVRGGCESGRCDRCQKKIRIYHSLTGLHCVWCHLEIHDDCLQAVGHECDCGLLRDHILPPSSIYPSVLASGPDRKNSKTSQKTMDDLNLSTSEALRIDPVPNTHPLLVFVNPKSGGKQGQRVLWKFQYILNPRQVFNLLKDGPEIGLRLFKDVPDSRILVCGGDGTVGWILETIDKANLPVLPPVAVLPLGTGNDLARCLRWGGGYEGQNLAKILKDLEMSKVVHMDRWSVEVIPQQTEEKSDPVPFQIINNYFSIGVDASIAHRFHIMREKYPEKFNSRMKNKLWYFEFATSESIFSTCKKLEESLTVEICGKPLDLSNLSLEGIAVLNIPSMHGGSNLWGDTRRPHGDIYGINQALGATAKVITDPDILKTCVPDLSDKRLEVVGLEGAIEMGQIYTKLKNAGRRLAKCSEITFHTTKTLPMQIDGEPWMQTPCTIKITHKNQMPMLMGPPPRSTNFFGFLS

Turning to `CC[C@H]1CN(C(C)c2ccc(C(=O)N3CCC(OC)C3)cc2)[C@H](CC)CN1c1cc(=O)n(C)c2cn(CC#N)nc12` (stereo partly drawn) [Compound A202, 2-(7-((2S,5R)-2,5-diethyl-4-(1-(4-(3-methoxypyrrolidine-1-carbonyl)phenyl)ethyl)piperazin-1-yl)-4-methyl-5-oxo-4,5-dihydro-2H-pyrazolo[4,3-b]pyridin-2-yl)acetonitrile], the values for the 50% inhibitory concentration (IC50) against DGKα and at DGKζ were 352 nM and 3210 nM, respectively.
Consider `CC[C@H]1CN(C(C)c2ncc(OC)cc2C)[C@H](CC)CN1c1cc(=O)n(C)c2cn(CC#N)nc12` (stereo partly drawn) [Compound A60, 2-(7-((2S,5R)-2,5-diethyl-4-(1-(5-methoxy-3-methylpyridin-2-yl)ethyl)piperazin-1-yl)-4-methyl-5-oxo-4,5-dihydro-2H-pyrazolo[4,3-b]pyridin-2-yl)acetonitrile], for which the IC50 is 38000 nM on DGKα and 643 nM at DGKζ.
The like results for `CC[C@H]1CN(C(C)c2nc(C)c(C)s2)[C@H](CC)CN1c1cc(=O)n(C)c2cn(CC#N)nc12` (single isomer, unassigned) [Compound A35b] were, in that order, over 150000 nM and 2420 nM.
`CC#CCn1cc2c(n1)c(N1C[C@@H](CC)N(C(C)c3ccc4nc(C)sc4c3F)C[C@@H]1CC)cc(=O)n2C` (single isomer, unassigned) [Compound A138a]: the IC50 on DGKα turned out to be 311 nM; at DGKζ, 143 nM.
The like results for `CCc1ccc(C(C)N2C[C@H](CC)N(c3cc(=O)n(C)c4cn(CC#N)nc34)C[C@H]2CC)cc1` (stereo partly drawn) [Compound A7, 2-(7-((2S,5R)-2,5-diethyl-4-(1-(4-ethylphenyl)ethyl)piperazin-1-yl)-4-methyl-5-oxo-4,5-dihydro-2H-pyrazolo[4,3-b]pyridin-2-yl)acetonitrile] were, in that order, 129 nM and 152 nM.
For `CC[C@H]1CN(C(C)c2ccc(C(=O)NC)cc2)[C@H](CC)CN1c1cc(=O)n(C)c2cn(CC#N)nc12` (single isomer, unassigned) [Compound A193b], the IC50 on DGKα was 6510 nM; at DGKζ, over 10000 nM.
The like results for `CC#CCn1cc2c(n1)c(N1C[C@@H](CC)N(C(C)c3ccc4ncsc4n3)C[C@@H]1C)cc(=O)n2C` (stereo partly drawn) [Compound A118, 2-(but-2-yn-1-yl)-7-((2S,5R)-5-ethyl-2-methyl-4-(1-(thiazolo[5,4-b]pyridin-5-yl)ethyl)piperazin-1-yl)-4-methyl-2,4-dihydro-5H-pyrazolo[4,3-b]pyridin-5-one] were, in that order, 20 nM and 232 nM.
The like results for `CC[C@H]1CN(C(C)c2ccc3ccnn3c2)[C@H](CC)CN1c1cc(=O)n(C)c2cn(CC#N)nc12` (single isomer, unassigned) [Compound A77b] were, in that order, 744 nM and 859 nM.
With `CC[C@H]1CN(C(C)c2ccn3ncc(F)c3n2)[C@H](CC)CN1c1nc(=O)n(C)c2cn(CC#N)nc12` (single isomer, unassigned) [Compound A164a], the half-inhibitory concentration (IC50) against DGKα was 7300 nM; against DGKζ, over 10000 nM.
Turning to `CC[C@H]1CN(C(C)c2ccc3nc(C)cn3n2)[C@H](CC)CN1c1cc(=O)n(C)c2cn(CC#N)nc12` (single isomer, unassigned) [Compound A149b], the IC50 turned out to be 43 nM on DGKα and 93 nM against DGKζ.
In the case of `CC[C@H]1CN(C(C)c2ccc(OC3COC3)c(C)c2)[C@H](CC)CN1c1cc(=O)n(C)c2cn(CC#N)nc12` (single isomer, unassigned) [Compound A21a], the results for the IC50 against DGKα and at DGKζ were 2890 nM and 1470 nM, respectively.
Regarding `CCC(c1ccc(C(F)(F)F)cc1)N1C[C@H](CC)N(c2cc(=O)n(C)c3cn(CC#N)nc23)C[C@H]1CC` (single isomer, unassigned) [Compound A135b], the values for the half-maximal inhibitory concentration (IC50) against DGKα and on DGKζ were 483 nM and 3750 nM, respectively.
The like results for `CC[C@H]1CN(C(C)c2ccc(C3CC3)nc2)[C@H](CC)CN1c1c(F)c(=O)n(C)c2cn(CC#N)nc12` (single isomer, unassigned) [Compound A48b] were, in that order, 788 nM and 108 nM.
For the molecule `CC[C@H]1CN(C(C)c2ccc(OC(C)C)cn2)[C@H](CC)CN1c1cc(=O)n(C)c2cn(CC#N)nc12` (single isomer, unassigned) [Compound A51b], the values for the IC50 at DGKα and against DGKζ were 337 nM and 1800 nM, respectively.
The like results for `CC[C@H]1CN(C(C)c2ccc3ncsc3c2)[C@H](CC)CN1c1c(Br)c(=O)n(C)c2cn(CC#N)nc12` (stereo partly drawn) [Compound A94] were, in that order, 1850 nM and 974 nM.
Regarding `CC[C@H]1CN(C(C)c2ccc3nc(C)sc3n2)[C@H](CC)CN1c1cc(=O)n(C)c2cn(CC#N)nc12` (single isomer, unassigned) [Compound A133a], the IC50 was determined as 3280 nM on DGKα and 1520 nM against DGKζ.
For the molecule `CC[C@H]1CN(C(C)c2nc(C)c(C)s2)[C@H](CC)CN1c1cc(=O)n(C)c2cn(CC#N)nc12` (single isomer, unassigned) [Compound A35a], the IC50 worked out at 131 nM on DGKα and 234 nM on DGKζ.
The like results for `CC[C@H]1CN(C(C)c2nc3cccnc3s2)[C@H](CC)CN1c1cc(=O)n(C)c2cn(CC#N)nc12` (stereo partly drawn) [Compound A181, 2-(7-((2S,5R)-2,5-diethyl-4-(1-(thiazolo[5,4-b]pyridin-2-yl)ethyl)piperazin-1-yl)-4-methyl-5-oxo-4,5-dihydro-2H-pyrazolo[4,3-b]pyridin-2-yl)acetonitrile] were, in that order, 470 nM and 178 nM.
On to `CC[C@H]1CN(C(C)c2ccn3nc(C)cc3c2)[C@H](CC)CN1c1cc(=O)n(C)c2cn(CC#N)nc12` (single isomer, unassigned) [Compound A162a], for which the IC50 against DGKα worked out at 104 nM; against DGKζ it was 51 nM.
The like results for `CC[C@H]1CN(C(C)c2ccc(C#N)cc2)[C@H](CC)CN1c1cc(=O)n(C)c2cn(CC#N)nc12` (stereo partly drawn) [Compound A191, 4-(1-((2R,5S)-4-(2-(cyanomethyl)-4-methyl-5-oxo-4,5-dihydro-2H-pyrazolo[4,3-b]pyridin-7-y)-2,5-diethylpiperazin-1-yl)ethyl)benzonitrile] were, in that order, under 23.3 nM and 285 nM.
With `CC[C@H]1CN(C(C)c2cc(F)c(C(=O)N(C)C)c(F)c2)[C@H](CC)CN1c1cc(=O)n(C)c2cn(CC#N)nc12` (single isomer, unassigned) [Compound A3b], the figures for the IC50 at DGKα and on DGKζ were 5900 nM and 551 nM, respectively.
The like results for `CC[C@H]1CN(C(C)c2ccc3ccnn3c2)[C@H](CC)CN1c1cc(=O)n(C)c2cn(CC#N)nc12` (single isomer, unassigned) [Compound A77a] were, in that order, 178 nM and 54 nM.
The like results for `CC[C@H]1CN(C(C)c2ccc(CN3CCC(F)(F)CC3)cn2)[C@H](CC)CN1c1cc(=O)n(C)c2cn(CC#N)nc12` (stereo partly drawn) [Compound A182, 2-(7-((2S,5R)-4-(1-(5-((4,4-difluoropiperidin-1-yl)methyl)pyridin-2-yl)ethyl)-2,5-diethylpiperazin-1-yl)-4-methyl-5-oxo-4,5-dihydro-2H-pyrazolo[4,3-b]pyridin-2-yl)acetonitrile] were, in that order, 54 nM and 281 nM.
The like results for `CC[C@H]1CN(C(C)c2ccc(CN3CCCC3)cc2)[C@H](CC)CN1c1cc(=O)n(C)c2cn(CC#N)nc12` (single isomer, unassigned) [Compound A26b] were, in that order, 24700 nM and over 10000 nM.

(Values after patent US20250346597A1, “CONDENSED HETEROCYCLIC COMPOUNDS AS INHIBITOR OF DIACYLGLYCEROL KINASES” (BEONE MEDICINES I GMBH, priority 2023, published 2025).)
